This passage reports melting point results from patent US6867208B2, “Vitronectin receptor antagonists, their preparation and their use” (Hoechst Aktiengesellschaft, priority 1996, dated 2005).

In the case of `N=C(N)NC(=O)CCCn1nc2ccc(C(=O)NCC(NC(=O)OCc3ccccc3)C(=O)O)cn2c1=O` (stereo not shown) [Example 6, 3-[2-(3-Guanidinocarbonyl-1-propyl)-2,3-dihydro-3-oxo-[1,2,4]triazolo[4,3-a]pyridin-6-carbonylamino]-2-[(phenylmethoxy)carbonylamino]propanoic acid], the melting point was 190 °C (dec.).
